{
  "source": "patent US8834942B2",
  "about": "“Enhanced absorption of oregano derived oils” (priority 2010, dated 2014)",
  "origin": "cited, not measured here",
  "details": "single emulsifier",
  "data": [
    {"substance": "polyoxyethylene sorbitan monooleate", "values": [
      {"measurement": "HLB value", "result": "about 15"}
    ]}
  ]
}
